Converted amounts (≈) assume the structure as drawn.

From ChEMBL document CHEMBL4342421, “Current scenario of tetrazole hybrids for antibacterial activity” (Eur J Med Chem, 2019) come the findings set out here.

Common to all, as to format: functional
Test [1] deals with Staphylococcus aureus. Kind of test: Antimicrobial activity against Staphylococcus aureus assessed as zone of inhibition at 5 mg/ml after 24 to 48 hrs by well diffusion method. The settings on record: read-out: IZ.
Test [2] relates to Bacillus subtilis. Kind of test: Antimicrobial activity against Bacillus subtilis assessed as zone of inhibition at 5 mg/ml after 24 to 48 hrs by well diffusion method. The settings on record: read-out: IZ.
The test system of test [3] is Pseudomonas aeruginosa. Kind of test: Antimicrobial activity against Pseudomonas aeruginosa assessed as zone of inhibition at 5 mg/ml after 24 to 48 hrs by well diffusion method. The settings on record: read-out: IZ. A general note: A growth-free zone around the sample is the usual read-out of agar diffusion tests.
Test [4] deals with Escherichia coli. The test is described as follows: Antimicrobial activity against Escherichia coli assessed as zone of inhibition at 5 mg/ml after 24 to 48 hrs by well diffusion method. The note with it: read-out: IZ.
Test [5] relates to Pseudomonas aeruginosa. Kind of test: Antimicrobial activity against Pseudomonas aeruginosa assessed as zone of inhibition at 5 mg/ml. The note with it: read-out: IZ.
The test system of test [6] is Staphylococcus aureus. The test is described as follows: Antimicrobial activity against Staphylococcus aureus assessed as zone of inhibition at 5 mg/ml. The settings on record: read-out: IZ.
The test system of test [7] is Klebsiella pneumoniae. Kind of test: Antimicrobial activity against Klebsiella pneumoniae assessed as zone of inhibition at 5 mg/ml. The note with it: read-out: IZ.
For test [8], the system named is Escherichia coli. Kind of test: Antimicrobial activity against Escherichia coli assessed as zone of inhibition at 5 mg/ml. The settings on record: read-out: IZ.
The subject of test [9] is Escherichia coli. Kind of test: Antimicrobial activity against Escherichia coli assessed as zone of inhibition at 10 ug/ml. The settings on record: read-out: IZ.
A further test relates to Candida albicans. The test is described as follows: Antifungal activity against Candida albicans assessed as zone of inhibition at 10 ug/ml. The note with it: read-out: IZ.
Test [10] relates to Bacillus subtilis. The test is described as follows: Antimicrobial activity against Bacillus subtilis assessed as zone of inhibition at 10 ug/ml. The note with it: read-out: IZ.
The subject of a further test is Lactococcus lactis. The test is described as follows: Antimicrobial activity against Streptococcus lactis assessed as zone of inhibition at 10 ug/ml. The settings on record: read-out: IZ.
In a further test the test system is Pseudomonas. The test is described as follows: Antimicrobial activity against Pseudomonas assessed as zone of inhibition at 10 ug/ml. The settings on record: read-out: IZ.
The test system of the next test is Streptomyces. Kind of test: Antimicrobial activity against Streptomyces assessed as zone of inhibition at 10 ug/ml. The settings on record: read-out: IZ.
For another test, the system named is Aspergillus niger. The test is described as follows: Antifungal activity against Aspergillus niger assessed as zone of inhibition at 10 ug/ml. The note with it: read-out: IZ.
The test system of a further test is Penicillium. Kind of test: Antifungal activity against Penicillium assessed as zone of inhibition at 10 ug/ml. The settings on record: read-out: IZ.
A short description of test [11]: Antifungal activity against Rhodotorula ingeniosa assessed as zone of inhibition at 10 ug/ml. The settings on record: Sampaiozyma ingeniosa; read-out: IZ.
The subject of test [12] is Escherichia coli. The test is described as follows: Antimicrobial activity against Escherichia coli assessed as zone of inhibition at 0.001 mol/cm3.
For test [13], the system named is Staphylococcus aureus. The test is described as follows: Antimicrobial activity against Staphylococcus aureus assessed as zone of inhibition at 0.001 mol/cm3.
Another test deals with Bacillus cereus. Kind of test: Antimicrobial activity against Bacillus cereus assessed as zone of inhibition at 0.001 mol/cm3.
In test [14] the test system is Staphylococcus aureus. Kind of test: Antimicrobial activity against Staphylococcus aureus ATCC 25923 after 24 hrs by disc diffusion method. The settings on record: ATCC 25923, 24 h.
In test [15] the test system is Escherichia coli. The test is described as follows: Antimicrobial activity against Escherichia coli ATCC 25922 after 24 hrs by disc diffusion method. The note with it: ATCC 25922, 24 h.
For test [16], the system named is Pseudomonas aeruginosa. The test is described as follows: Antimicrobial activity against Pseudomonas aeruginosa ATCC 27853 after 24 hrs by disc diffusion method. The settings on record: ATCC 27853, 24 h.
The subject of test [17] is Klebsiella pneumoniae. The test is described as follows: Antimicrobial activity against Klebsiella pneumoniae after 24 hrs by disc diffusion method.
The test system of the next test is Aspergillus flavus. The test is described as follows: Antifungal activity against Aspergillus flavus NCIM 524 after 3 to 4 days.
The next test has as its system Aspergillus fumigatus. Kind of test: Antifungal activity against Aspergillus fumigatus NCIM 902 after 3 to 4 days.
In the next test the test system is Talaromyces marneffei. The test is described as follows: Antifungal activity against Penicillium marneffei after 3 to 4 days.
Test [18] relates to Trichophyton mentagrophytes. Kind of test: Antifungal activity against Trichophyton mentagrophytes after 3 to 4 days.
Test [19] relates to Escherichia coli. The test is described as follows: Antimicrobial activity against Escherichia coli after 24 hrs by agar disk diffusion method.
Test [20] has as its system Pseudomonas aeruginosa. The test is described as follows: Antimicrobial activity against Pseudomonas aeruginosa after 24 hrs by agar disk diffusion method.
Test [21] has as its system Klebsiella pneumoniae. Kind of test: Antimicrobial activity against Klebsiella pneumoniae after 24 hrs by agar disk diffusion method.
In another test the test system is Proteus mirabilis. Kind of test: Antimicrobial activity against Proteus mirabilis after 24 hrs by agar disk diffusion method.

In the case of `Cc1c(-c2cc(-c3ccc(-c4cc(-c5cnn(-c6ccccc6)c5C)n5nnnc5n4)cc3)nc3nnnn23)cnn1-c1ccccc1`, the zone of inhibition at 5000 µg/mL with Staphylococcus aureus [1], with Bacillus subtilis [2], in the test with Pseudomonas aeruginosa [3] and in the test on Escherichia coli [4] was 8.1 to 9.9 mm throughout.

In the case of `Cc1ccc2nc(C)c(Cn3cc(CSc4nnnn4-c4ccccc4)nn3)cc2c1`, the zone of inhibition at 5000 µg/mL in the test with Pseudomonas aeruginosa [5], in the test with Staphylococcus aureus [6], with Klebsiella pneumoniae [7] and in the test on Escherichia coli [8] was 11 to 19 mm throughout.

Consider `c1ccc2c(c1)nnn2Cc1nnn[nH]1`, for which the zone of inhibition at 10 µg/mL in the test with Escherichia coli [9], in the test with Candida albicans, with Bacillus subtilis [10], in the test on Lactococcus lactis, in the test on Pseudomonas and in the test with Streptomyces was 11 to 16 mm each time. In addition, the zone of inhibition at 10 µg/mL (in the test on Aspergillus niger; in the test on Penicillium; in test [11]) was 11 to 16 mm in each case.

With `Cc1c(-c2cc(-c3ccccc3)nc3nnnn23)cnn1-c1ccccc1`, the zone of inhibition at 5000 µg/mL in the test on Staphylococcus aureus [1], in the test with Bacillus subtilis [2], in the test with Pseudomonas aeruginosa [3] and in the test on Escherichia coli [4] was 13.7 to 18.6 mm in each case.

Regarding `CCOC(=O)c1c(-n2cnnn2)sc(C(=O)c2ccccc2)c1C`, the “inhibition zone (IZ)” value with Escherichia coli [12], with Staphylococcus aureus [13] and with Bacillus cereus was 22 - 24 mm throughout.

As to `c1ccc(Cn2nnnc2SCCCSc2nnnn2-c2ccccc2)cc1`, the MIC against Staphylococcus aureus [14], in the test on Escherichia coli [15], in the test with Pseudomonas aeruginosa [16], against Klebsiella pneumoniae [17], in the test with Aspergillus flavus and with Aspergillus fumigatus was 6.25 to 50 µg/mL (≈ 15.2 to 122 µM) throughout. Moreover, the minimal inhibitory concentration (MIC) (usually the lowest concentration that inhibits growth of the organism) was 6.25 to 50 µg/mL (≈ 15.2 to 122 µM) in the test on Talaromyces marneffei; 6.25 to 50 µg/mL (≈ 15.2 to 122 µM) in [18]; 6.25 µg/mL (≈ 15.2 µM) in the test on Escherichia coli [19]; 6.25 µg/mL (≈ 15.2 µM) against Pseudomonas aeruginosa [20]; 6.25 µg/mL (≈ 15.2 µM) against Klebsiella pneumoniae [21]; 6.25 µg/mL (≈ 15.2 µM) in the test on Proteus mirabilis.

On to `c1ccc(-n2nnnc2SCCCSc2nnnn2C2CC2)cc1`, for which the minimal inhibitory concentration (MIC) in the test on Staphylococcus aureus [14], against Escherichia coli [15], against Pseudomonas aeruginosa [16], against Klebsiella pneumoniae [17], against Aspergillus flavus and against Aspergillus fumigatus was 6.25 to 50 µg/mL (≈ 17.3 to 139 µM) each time. The MIC (against Talaromyces marneffei; in test [18]) was 6.25 to 50 µg/mL (≈ 17.3 to 139 µM) each time.

As to `Cc1ccc2cc(Cn3cc(CSc4nnnn4-c4ccccc4)nn3)c(C)nc2c1`, the zone of inhibition at 5000 µg/mL in the test with Pseudomonas aeruginosa [5], in the test on Staphylococcus aureus [6], in the test with Klebsiella pneumoniae [7] and with Escherichia coli [8] was 11 to 19 mm each time.

Turning to `CCn1nnnc1SCCCSc1nnnn1-c1ccccc1`, the minimum inhibitory concentration (MIC) with Staphylococcus aureus [14], in the test on Escherichia coli [15], in the test with Pseudomonas aeruginosa [16], against Klebsiella pneumoniae [17], in the test on Aspergillus flavus and against Aspergillus fumigatus was 6.25 to 50 µg/mL (≈ 17.9 to 143 µM) throughout. Moreover, the MIC (in the test on Talaromyces marneffei; in test [18]) was 6.25 to 50 µg/mL (≈ 17.9 to 143 µM) in each case.
